# Literature values as cited in PMC5473336 (Journal of medicinal chemistry, 2016).
# Entries after “also recorded” stand apart in the source; their conditions may differ. Read-outs that look alike come from different tables or passages of the source.
# Assays:
# RAD51 [1] = conditions: cited from earlier work
# human cells = conditions: following irradiation; cited from earlier work
# RAD51 [2] = conditions: cited from earlier work; remark: listed apart in the source
structure (smiles),measurement,setting,value
C[C@@]12CCC(=O)c3coc(c31)C(=O)c1cc3c(cc12)C(=O)C=CC3=O [halenaquinone],RAD51 D-loop activity (in words),RAD51 [1],specifically inhibit D-loop formation
same,RAD51 D-loop activity (in words),RAD51 [1]; listed as Halenaquinone,strongly inhibit
same,RAD51 foci at DSB sites in cells (in words),human cells,inhibit the formation of RAD51 foci; also recorded: reduces the subnuclear appearance of RAD51 foci
same,RAD51 ssDNA binding activity (in words),RAD51 [2],sparing
